Assay results from the supplement of paper PMC10307832.

Tests used:
Assay in all cases: relative viability (nuclei count vs DMSO), 5 days (fraction); higher = more cells survive
17-AAG = compound: C=CCNC1=C2C[C@@H](C)C[C@H](OC)[C@H](O)[C@@H](C)/C=C(\C)[C@H](OC(N)=O)[C@@H](OC)/C=C\C=C(/C)C(=O)NC(=CC1=O)C2=O [17-AAG]
How it was run: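 Cells of lung cancer lines were placed in 1536-well plates and kept overnight at 37 °C. Pinning then delivered five library-drug doses (not always all listed), spaced by √10, onto plates anchored with vehicle, and the cells were left 5 days without changing medium. One step fixed, permeabilised and stained them with Hoechst, and MetaXpress counted nuclei in 4× images. Viability, as a median over plates, is treated-well nuclei divided by vehicle-well nuclei, with acceptance only at control CV below 25% and at least one doubling.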

17-AAG + Tozasertib = compound: C=CCNC1=C2C[C@@H](C)C[C@H](OC)[C@H](O)[C@@H](C)/C=C(\C)[C@H](OC(N)=O)[C@@H](OC)/C=C\C=C(/C)C(=O)NC(=CC1=O)C2=O [17-AAG] + Cc1cc(Nc2cc(N3CCN(C)CC3)nc(Sc3ccc(NC(=O)C4CC4)cc3)n2)n[nH]1 [Tozasertib] (partner 0.1 µM)
How it was run: (§1)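 After 5 days of treatment, lung cancer cells in 1536-well plates were fixed and stained in a single step (final 0.05% Triton X-100, 1% formaldehyde, 1 ug/ml Hoechst) and their nuclei counted on 4× images. Treatment had been applied by pin tool the day after seeding as one drug alone or as a fixed anchor-drug dose with five library-drug doses (not always all listed) in √10 steps. Relative viability is the nuclei count of treated wells divided by that of vehicle wells, and values are medians of duplicate plates.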

17-AAG + Luminespib = compound: C=CCNC1=C2C[C@@H](C)C[C@H](OC)[C@H](O)[C@@H](C)/C=C(\C)[C@H](OC(N)=O)[C@@H](OC)/C=C\C=C(/C)C(=O)NC(=CC1=O)C2=O [17-AAG] + CCNC(=O)c1noc(-c2cc(C(C)C)c(O)cc2O)c1-c1ccc(CN2CCOCC2)cc1 [Luminespib] (partner 0.01 µM)
How it was run: as §1

17-AAG + OSI-027 = compound: C=CCNC1=C2C[C@@H](C)C[C@H](OC)[C@H](O)[C@@H](C)/C=C(\C)[C@H](OC(N)=O)[C@@H](OC)/C=C\C=C(/C)C(=O)NC(=CC1=O)C2=O [17-AAG] + COc1cccc2cc(-c3nc([C@H]4CC[C@H](C(=O)O)CC4)n4ncnc(N)c34)[nH]c12 [OSI-027] (partner 0.5 µM)
How it was run: as §1

17-AAG + Foretinib = compound: C=CCNC1=C2C[C@@H](C)C[C@H](OC)[C@H](O)[C@@H](C)/C=C(\C)[C@H](OC(N)=O)[C@@H](OC)/C=C\C=C(/C)C(=O)NC(=CC1=O)C2=O [17-AAG] + COc1cc2c(Oc3ccc(NC(=O)C4(C(=O)Nc5ccc(F)cc5)CC4)cc3F)ccnc2cc1OCCCN1CCOCC1 [Foretinib] (partner 0.25 µM)
How it was run: as §1

17-AAG + Phenformin = compound: C=CCNC1=C2C[C@@H](C)C[C@H](OC)[C@H](O)[C@@H](C)/C=C(\C)[C@H](OC(N)=O)[C@@H](OC)/C=C\C=C(/C)C(=O)NC(=CC1=O)C2=O [17-AAG] + N=C(N)NC(=N)NCCc1ccccc1 [Phenformin] (partner 250 µM)
How it was run: as §1

17-AAG + Dasatinib = compound: C=CCNC1=C2C[C@@H](C)C[C@H](OC)[C@H](O)[C@@H](C)/C=C(\C)[C@H](OC(N)=O)[C@@H](OC)/C=C\C=C(/C)C(=O)NC(=CC1=O)C2=O [17-AAG] + Cc1nc(Nc2ncc(C(=O)Nc3c(C)cccc3Cl)s2)cc(N2CCN(CCO)CC2)n1 [Dasatinib] (partner 0.075 µM)
How it was run: as §1

Cell Line: NCI-H1623
- relative viability (17-AAG; 0.00128 µM): 0.978
- relative viability (17-AAG; 0.004048 µM): 0.919
- relative viability (17-AAG; 0.0128 µM): 0.755
- relative viability (17-AAG; 0.04048 µM): 0.31
- relative viability (17-AAG; 0.128 µM): 0.383
- relative viability (17-AAG + Tozasertib; first compound 0.00128 µM): 0.412
- relative viability (17-AAG + Tozasertib; first compound 0.004048 µM): 0.401
- relative viability (17-AAG + Tozasertib; first compound 0.0128 µM): 0.497
- relative viability (17-AAG + Tozasertib; first compound 0.04048 µM): 0.261
- relative viability (17-AAG + Tozasertib; first compound 0.128 µM): 0.31
- relative viability (17-AAG + Luminespib; first compound 0.00128 µM): 0.555
- relative viability (17-AAG + Luminespib; first compound 0.004048 µM): 0.369
- relative viability (17-AAG + Luminespib; first compound 0.0128 µM): 0.283
- relative viability (17-AAG + Luminespib; first compound 0.04048 µM): 0.273
- relative viability (17-AAG + Luminespib; first compound 0.128 µM): 0.267
- relative viability (17-AAG + OSI-027; first compound 0.00128 µM): 0.475
- relative viability (17-AAG + OSI-027; first compound 0.004048 µM): 0.463
- relative viability (17-AAG + OSI-027; first compound 0.0128 µM): 0.33
- relative viability (17-AAG + OSI-027; first compound 0.04048 µM): 0.254
- relative viability (17-AAG + OSI-027; first compound 0.128 µM): 0.33
- relative viability (17-AAG + Foretinib; first compound 0.00128 µM): 0.87
- relative viability (17-AAG + Foretinib; first compound 0.004048 µM): 0.695
- relative viability (17-AAG + Foretinib; first compound 0.0128 µM): 0.491
- relative viability (17-AAG + Foretinib; first compound 0.04048 µM): 0.304
- relative viability (17-AAG + Foretinib; first compound 0.128 µM): 0.336
- relative viability (17-AAG + Phenformin; first compound 0.00128 µM): 0.614
- relative viability (17-AAG + Phenformin; first compound 0.004048 µM): 0.369
- relative viability (17-AAG + Phenformin; first compound 0.0128 µM): 0.323
- relative viability (17-AAG + Phenformin; first compound 0.04048 µM): 0.268
- relative viability (17-AAG + Phenformin; first compound 0.128 µM): 0.285
- relative viability (17-AAG + Dasatinib; first compound 0.00128 µM): 0.625
- relative viability (17-AAG + Dasatinib; first compound 0.004048 µM): 0.351
- relative viability (17-AAG + Dasatinib; first compound 0.0128 µM): 0.284
- relative viability (17-AAG + Dasatinib; first compound 0.04048 µM): 0.265
- relative viability (17-AAG + Dasatinib; first compound 0.128 µM): 0.284
